Experimental data taken from the supplement of paper PMC10307832.

Legend:
Experiment in all cases: relative viability (nuclei count vs DMSO), 5 days (fraction); higher = more cells survive
[1] = compound: CCN(CCO)CCCC(C)Nc1ccnc2cc(Cl)ccc12 [Hydroxychloroquine] + O=C(c1cc(Cc2n[nH]c(=O)c3ccccc23)ccc1F)N1CCN(C(=O)C2CC2)CC1 [Olaparib] (partner 8 µM)
Outline: (§1)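 The day after seeding in 1536-well plates, lung cancer cell lines were treated by pin tool with a single drug, or with a fixed anchor-drug dose together with five library-drug doses (not always all listed) in √10 steps. After 5 days, a combined fix-and-stain solution (final 0.05% Triton X-100, 1% formaldehyde, 1 ug/ml Hoechst) was added. Nuclei counted on 4× images gave relative viability as treated counts over vehicle counts, reported as the median of duplicate plates.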

[2] = compound: CCN(CCO)CCCC(C)Nc1ccnc2cc(Cl)ccc12 [Hydroxychloroquine] + Nc1nc2[nH]cc(CCc3ccc(C(=O)N[C@@H](CCC(=O)O)C(=O)O)cc3)c2c(=O)[nH]1 [Pemetrexed] (partner 0.2 µM)
Outline: as §1

[3] = compound: CCN(CCO)CCCC(C)Nc1ccnc2cc(Cl)ccc12 [Hydroxychloroquine] + O=C(CCCCCCC(=O)Nc1ccccc1)NO [Vorinostat] (partner 1 µM)
Outline: as §1

[4] = compound: CCN(CCO)CCCC(C)Nc1ccnc2cc(Cl)ccc12 [Hydroxychloroquine] + C[C@]1(O)C[C@@H](c2nc(-c3ccc4ccc(-c5ccccc5)nc4c3)c3c(N)nccn32)C1 [Linsitinib] (partner 1 µM)
Outline: as §1

| Cell Line | relative viability ([1]; first compound 0.5 µM) | relative viability ([1]; first compound 1.581 µM) | relative viability ([1]; first compound 5 µM) | relative viability ([1]; first compound 15.81 µM) | relative viability ([1]; first compound 50 µM) | relative viability ([2]; first compound 0.5 µM) | relative viability ([2]; first compound 1.581 µM) | relative viability ([2]; first compound 5 µM) | relative viability ([2]; first compound 15.81 µM) | relative viability ([2]; first compound 50 µM) | relative viability ([3]; first compound 0.5 µM) | relative viability ([3]; first compound 1.581 µM) | relative viability ([3]; first compound 5 µM) | relative viability ([3]; first compound 15.81 µM) | relative viability ([3]; first compound 50 µM) | relative viability ([4]; first compound 0.5 µM) | relative viability ([4]; first compound 1.581 µM) | relative viability ([4]; first compound 5 µM) | relative viability ([4]; first compound 15.81 µM) | relative viability ([4]; first compound 50 µM) |
| --- | --- | --- | --- | --- | --- | --- | --- | --- | --- | --- | --- | --- | --- | --- | --- | --- | --- | --- | --- | --- |
| NCI-H1666 | 0.669 | 0.727 | 0.719 | 0.749 | 0.693 | 0.878 | 0.765 | 0.846 | 0.755 | 0.844 | 0.991 | 0.943 | 1.01 | 0.92 | 0.936 | 0.764 | 0.773 | 0.771 | 0.813 | 0.724 |
| NCI-H1734 | 0.525 | 0.601 | 0.626 | 0.616 | 0.635 | 0.46 | 0.398 | 0.408 | 0.427 | 0.427 | 0.856 | 0.697 | 0.787 | 0.866 | 0.826 | 0.817 | 0.748 | 0.914 | 0.894 | 0.903 |
| NCI-H1755 | 0.861 | 0.841 | 0.841 | 0.912 | 0.827 | 0.573 | 0.426 | 0.42 | 0.386 | 0.438 | 0.79 | 0.656 | 0.778 | 0.734 | 0.737 | 1.02 | 0.838 | 0.933 | 0.972 | 0.878 |
| NCI-H1793 | 0.866 | 0.814 | 0.878 | 0.906 | 0.728 | 0.982 | 0.913 | 0.753 | 0.628 | 0.632 | 0.791 | 0.606 | 0.548 | 0.638 | 0.804 | 0.774 | 0.758 | 1.06 | 0.941 | 0.964 |
| NCI-H1915 | 0.244 | 0.243 | 0.262 | 0.275 | 0.265 | 0.531 | 0.514 | 0.505 | 0.524 | 0.521 | 0.521 | 0.456 | 0.48 | 0.549 | 0.5 | 1.11 | 1.13 | 1.11 | 1.09 | 1.11 |
| NCI-H1944 | 0.417 | 0.445 | 0.416 | 0.414 | 0.402 | 0.691 | 0.586 | 0.531 | 0.586 | 0.648 | 0.553 | 0.487 | 0.46 | 0.478 | 0.56 | 1.12 | 1.09 | 1.16 | 1.11 | 1.19 |
| NCI-H1975 | 0.816 | 0.767 | 0.856 | 0.85 | 0.911 | 0.281 | 0.325 | 0.309 | 0.297 | 0.301 | 0.682 | 0.704 | 0.8 | 0.742 | 0.717 | 0.938 | 0.949 | 0.92 | 1.04 | 1.06 |
| NCI-H1993 | 1.24 | 1.04 | 1.14 | 0.61 | 1.11 | 0.577 | 0.507 | 0.623 | 0.601 | 0.597 | 0.828 | 0.837 | 0.599 | 0.656 | 0.727 | 0.707 | 0.719 | 0.683 | 0.718 | 0.735 |
